For orientation: IC50 means the concentration needed to halve the response being measured. The low end stands for inhibition by little substance, the high end for a need for much substance.

In the test the target is Stromelysin-1 (Homo sapiens, UniProt P08254). Nature of the test: Inhibition of matrix metalloprotease-3 (MMP-3).
Stromelysin-1, sequence (P08254 whole entry): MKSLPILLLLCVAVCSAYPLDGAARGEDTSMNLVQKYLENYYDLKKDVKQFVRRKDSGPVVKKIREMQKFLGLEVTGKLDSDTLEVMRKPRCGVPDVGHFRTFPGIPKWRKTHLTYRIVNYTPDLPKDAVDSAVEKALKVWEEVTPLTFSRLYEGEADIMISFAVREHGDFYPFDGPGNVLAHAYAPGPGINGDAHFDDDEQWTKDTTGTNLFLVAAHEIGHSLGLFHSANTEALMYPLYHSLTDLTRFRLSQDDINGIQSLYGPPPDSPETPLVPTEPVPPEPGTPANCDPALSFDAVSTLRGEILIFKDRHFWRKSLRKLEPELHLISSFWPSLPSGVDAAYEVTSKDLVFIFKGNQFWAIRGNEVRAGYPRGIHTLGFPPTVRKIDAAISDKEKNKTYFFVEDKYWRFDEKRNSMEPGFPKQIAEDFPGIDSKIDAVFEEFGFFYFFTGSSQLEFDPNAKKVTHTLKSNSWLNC
On to `COC(=O)[C@@H]1CCCNN1C(=O)[C@@H](CC(=O)NO)CC(C)C`, for which the half-inhibitory concentration (IC50) came out at 810 nM.
As for `COC[C@@H]1CCCNN1C(=O)[C@@H](CC(=O)NO)CC(C)C`, the figure is 20400 nM.
As for `CC(C)C[C@H](CC(=O)NO)C(=O)N1CCCCN1`, the figure is 9670 nM; as for `CC(C)C[C@H](CC(=O)NO)C(=O)N1NCCC[C@H]1C(=O)O`, 600 nM; as for `CCCCC[C@H](CC(=O)NO)C(=O)N1NCCC[C@H]1C(=O)N[C@@H](C(=O)CC)C(C)CC` (stereo partly specified), 300 nM.
For the compound `CC(C)C[C@H](CC(=O)NO)C(=O)N1NCCC[C@H]1CO`, the midpoint of inhibition, the IC50, lay at 2700 nM.
